Measured values reported in US6440434B1, “Skin care composition” (Conopco, Inc., priority 1999, dated 2002).
Read-outs that look alike come from different tables or passages of the source.

Tests used:
[1] = system: LRAT and ARAT catalyzed retinol esterification; assay: in vitro Microsomal Assay, retinol esterification overall (statements in words); type: biochemical, bovine
[2] = biological target: T1, lecithin retinol acyl transferase (LRAT) (Bos taurus, UniProt Q9BGL2); assay: in vitro Microsomal Assay of retinol esterification, LRAT catalyzed (retinyl laurate); type: biochemical, bovine; conditions: solvent blank = 100% ester formation
T1 sequence (Q9BGL2 1-230): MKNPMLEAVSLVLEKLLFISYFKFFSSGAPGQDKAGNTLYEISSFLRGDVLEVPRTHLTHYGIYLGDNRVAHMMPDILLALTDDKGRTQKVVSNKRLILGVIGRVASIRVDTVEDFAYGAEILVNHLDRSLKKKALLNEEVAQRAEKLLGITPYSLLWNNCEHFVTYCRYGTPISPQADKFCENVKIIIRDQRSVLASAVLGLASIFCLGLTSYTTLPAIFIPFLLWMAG

[3] = system: acyl CoA retinol transferase (ARAT); assay: in vitro Microsomal Assay of retinol esterification, ARAT catalyzed (retinyl palmitate); type: biochemical, bovine; conditions: solvent blank = 100% ester formation
[4] = system: decorin synthesis in human dermal fibroblasts; assay: Dot blot assay for decorin in dermal fibroblast conditioned medium; type: cell-based
[5] = system: procollagen-I synthesis in human dermal fibroblasts; assay: Dot blot assay for procollagen-I in dermal fibroblast conditioned medium; type: cell-based; conditions: 0.01 μM of each active; for Procollagen 1: Table 7, PA/Retinol set, control = 100%
[6] = Table 7, PA/trans Retinoic acid set, 0.01 μM of each active, control = 100%

Row | Compound | % INHIBITION, LRAT ([2]; 100 μM test compound) [%] | % INHIBITION, ARAT ([3]; 100 μM test compound) [%] | also measured
1 | CCC(=O)/C=C/C1C(C)=CCCC1(C)C (stereo not drawn) [Alpha methyl ionone] | 77 | 67 | –
2 | CCCCC/C=C\C/C=C\CCCCCCCC(=O)NCCO [Linoleamide-MEA (LOMEA), Linoleamide-MEA] | – | – | retinol esterification inhibition (in words) [1]: potent retinol esterification inhibitors; Decorin ([4]; Table 6, 0.1 μg/ml, 24 hours, vehicle control = 100): 133.9%
3 | CC(C)(O)CCCC1=CCC(C=O)CC1 (stereo not shown) [Lyral] | – | 76 | –
4 | CCCCCCCCCCC/C=C\CCCCC(=O)O [PA, Petroselinic acid] | – | – | Procollagen-I ([5]; Table 6, 24 hours, vehicle control = 100): 85.1%; Procollagen 1 [5]: 86.0%; Decorin ([4]; Table 6, 0.01 μM, 24 hours, vehicle control = 100): 101.8%; Decorin ([4]; Table 7, PA/Retinyl Linoleate set, 0.01 μM, control = 100%): 107.5%; Decorin [4, 6]: 100.5%
5 | CC1=C(/C=C/C(C)=C/C=C/C(C)=C/CO)C(C)(C)CCC1 [Retinol, reference compound] | – | – | Procollagen 1 [5]: 95.0%
6 | CCCCC/C=C\C/C=C\CCCCCCCC(=O)OC/C=C(C)/C=C/C=C(C)/C=C/C1=C(C)CCCC1(C)C [Retinyl Linoleate] | – | – | Decorin ([4]; Table 7, PA/Retinyl Linoleate set, 0.1 μM, control = 100%): 109.1%
7 | CCCC(O)CCC1C(C)CCCC1(C)C (stereo not shown) [Timberol] | 33 | – | –
8 | CC(=O)c1cc2c(cc1C)C(C)(C)C(C)CC2(C)C (stereo not shown) [Tonalid] | – | 50 | –
9 | Nc1ncnc2nc[nH]c12 [adenine, reference compound] | – | 0 | –
10 | C=C(C)C1CC=C(C)C(=O)C1 (stereo not shown) [carvone, reference compound] | – | 0 | –
11 | O=CC=Cc1ccccc1 [cinnamaldehyde, reference compound] | – | 0 | –
12 | O=C(NCO)N(CO)C1(CO)C(=O)NC(=O)N1CO (stereo not shown) [diazolidinyl urea, reference compound] | – | 0 | –
13 | CC(=O)CCC1C(C)=CCCC1(C)C (stereo not drawn) [dihydro alpha ionone, reference compound] | 18 | 13 | –
14 | CC1=C(/C=C/C(C)=C/C=C/C(C)=C/C(=O)O)C(C)(C)CCC1 [trans Retinoic acid, reference compound] | – | – | Decorin [4, 6]: 102.8%
15 | N[C@@H](Cc1c[nH]c2ccccc12)C(=O)O [tryptophan, reference compound] | – | 0 | –
16 | O=c1cc[nH]c(=O)[nH]1 [uracil, reference compound] | – | 0 | –
17 | COc1cc(C=O)ccc1O [vanillin, reference compound] | – | 0 | –

Continued, in another order:

Row | % INHIBITION, LRAT ([2]; 100 μM test compound) [%] | % INHIBITION, ARAT ([3]; 100 μM test compound) [%] | Compound | also measured
18 | 50 | 62 | CCCCCCCCCCCCC/C=C/[C@@H](O)[C@H](CO)NC(C)=O [Acetyl Sphingosine] | retinol esterification inhibition (in words) [1]: potent retinol esterification inhibitors; % INHIBITION, LRAT ([2]; 10 μM test compound): 10%; % INHIBITION, ARAT ([3]; 10 μM test compound): 19%
19 | 92 | – | C/C=C/C(=O)C1=C(C)CCCC1(C)C [Beta damascone] | % INHIBITION, LRAT ([2]; 10 μM test compound): 52%
20 | 75 | 70 | CC1=CCC(CCC(C)CO)C1(C)C (stereo not shown) [Brahmanol] | –
21 | 79 | – | C/C=C/C(=O)C1=C(C)C=CCC1(C)C [Damascenone] | % INHIBITION, LRAT ([2]; 10 μM test compound): 29%
22 | 95 | – | C/C=C/C(=O)C1C(C)C=CCC1(C)C (stereo not shown) [Delta damascone] | % INHIBITION, LRAT ([2]; 10 μM test compound): 64%
23 | 49 | – | CCOC(=O)C1=C(C)C=CCC1(C)C [Ethyl saffranate] | –
24 | – | 43 | CC(C)=CCCC(C)=CCCC(C)=CCO [Farnesol] | retinol esterification inhibition (in words) [1]: inhibit retinol esterification; % INHIBITION, ARAT ([3]; 10 μM test compound): 20%
25 | 38 | – | CC(=O)/C(C)=C/C1C(C)=CCCC1(C)C (stereo not shown) [Gamma methyl ionone] | –
26 | – | 81 | CC(C)=CCC/C(C)=C/CC/C(C)=C/CC/C(C)=C/CO [Geranyl Geraniol] | retinol esterification inhibition (in words) ([1]; listed as Geranyl geraniol): substantially more potent esterification inhibitor, than farnesol; retinol esterification inhibition (in words) ([1]; listed as geranyl geraniol): inhibit retinol esterification; % INHIBITION, ARAT ([3]; 10 μM test compound): 38%
27 | 92 | 80 | CC=CC(=O)C1CCC(C)(C)C=C1C (stereo not shown) [Isodamascone] | –
28 | 51 | – | CCCCC/C=C\C/C=C\CCCCCCCC(=O)N(CCO)CCO [Linoleamide-DEA (LODEA), Linoleamide-DEA] | retinol esterification inhibition (in words) [1]: potent retinol esterification inhibitors; % INHIBITION, LRAT ([2]; 10 μM test compound): 11%
29 | – | 0 | CC12CCC(CC1=O)C2(C)C (stereo not shown) [camphor, reference compound] | –
30 | – | 0 | CC12CCC(CC1)C(C)(C)O2 [eucalyptol, reference compound] | –
31 | – | 12 | CC12CCC(C1)C(C)(C)C2O (stereo not shown) [fenchyl alcohol, reference compound] | –
32 | 16 | 18 | CC1=CC(C)C(CO)C(C)C1 (stereo not shown) [isocyclogeraniol, reference compound] | –
33 | – | 0 | Cc1ncc(C[n+]2csc(CCO)c2C)c(N)n1 [thiamine, reference compound] | –
34 | – | 0 | Cc1ccc(C(C)C)c(O)c1 [thymol, reference compound] | –
35 | 45 | 8 | Isobutyl ionone | –
36 | 12 | 23 | Sandalone | –
37 | 43 | 15 | Sandanol | –
